Experimental data: publication PMC8803738, “Impact of the mouse model and molar amount of injected ligand on the tissue distribution profile of PSMA radioligands” (European Journal of Nuclear Medicine and Molecular Imaging, 2021)

Test system: LNCaP tumor-bearing mice
Experiment: Biodistribution in LNCaP tumor-bearing mice
Conditions: for AUCTu(0→48 h)-to-AUCKi(0→48 h) ratio: LNCaP model (male mice); for AUCTu(0→48 h)-to-AUCKi(0→48 h) ratio / AUC0→48h, Kidneys / AUC0→48h, LNCaP tumor: average ± SE, non-decay-corrected
[1] = LNCaP model, 4 h p.i., 0.05 nmol
[2] = LNCaP model, 4 h p.i., 1.0 nmol
[3] = LNCaP model, 24 h p.i., 0.05 nmol
[4] = LNCaP model, 24 h p.i., 1.0 nmol
[5] = LNCaP model, 48 h p.i., 0.05 nmol
[6] = LNCaP model, 48 h p.i., 1.0 nmol

CC(C)Cc1ccc(C(C)C(=O)NC(CCN)C(=O)NCCCCC(NC(=O)CN2CCN(CC(=O)O)CCN(CC(=O)O)CCN(CC(=O)O)CC2)C(=O)NCC2CCC(C(=O)NC(Cc3ccc4ccccc4c3)C(=O)NCCCCC(NC(=O)NC(CCC(=O)O)C(=O)O)C(=O)O)CC2)cc1 (centres unmarked) [[^177Lu]Lu-Ibu-DAB-PSMA, metal not drawn]
AUCTu(0→48 h)-to-AUCKi(0→48 h) ratio (0.05 nmol): 0.89 ± 0.25
AUCTu(0→48 h)-to-AUCKi(0→48 h) ratio (1.0 nmol): 1.2 ± 0.2
AUC0→48h, Kidneys (LNCaP model, 0.05 nmol): 815 ± 103 % IA/g*h
AUC0→48h, LNCaP tumor (LNCaP model, 0.05 nmol): 721 ± 115 % IA/g*h
Increase of tumor-to-kidney AUC0→48 h ratio for high vs low molar amount of injected ligand (LNCaP model, 1.0 nmol vs 0.05 nmol): 1.3 fold
AUC0→48h, Kidneys (LNCaP model, 1.0 nmol): 349 ± 21 % IA/g*h
AUC0→48h, LNCaP tumor (LNCaP model, 1.0 nmol): 402 ± 38 % IA/g*h
Tissue distribution, Blood [1]: 1.6 ± 0.3 % IA/g
Tissue distribution, Bone [1]: 0.63 ± 0.33 % IA/g
Tissue distribution, Heart [1]: 0.61 ± 0.13 % IA/g
Tissue distribution, Intestines [1]: 0.33 ± 0.03 % IA/g
Tissue distribution, Kidneys [1]: 58 ± 10 % IA/g
Tissue distribution, LNCaP tumor [1]: 18 ± 3 % IA/g
Tissue distribution, Liver [1]: 1.3 ± 0.1 % IA/g
Tissue distribution, Lung [1]: 1.4 ± 0.2 % IA/g
Tissue distribution, Muscle [1]: 1.5 ± 1.9 % IA/g
Tissue distribution, Salivary glands [1]: 0.59 ± 0.14 % IA/g
Tissue distribution, Spleen [1]: 1.5 ± 0.4 % IA/g
Tissue distribution, Stomach [1]: 0.32 ± 0.06 % IA/g
Tumor-to-blood ratio [1]: 12 ± 1
Tumor-to-kidney ratio [1]: 0.32 ± 0.03
Tumor-to-liver ratio [1]: 14 ± 1
Tissue distribution, Blood [2]: 0.87 ± 0.29 % IA/g
Tissue distribution, Bone [2]: 0.39 ± 0.17 % IA/g
Tissue distribution, Heart [2]: 0.41 ± 0.11 % IA/g
Tissue distribution, Intestines [2]: 0.23 ± 0.05 % IA/g
Tissue distribution, Kidneys [2]: 16 ± 1 % IA/g
Tissue distribution, LNCaP tumor [2]: 12 ± 2 % IA/g
Tissue distribution, Liver [2]: 0.82 ± 0.09 % IA/g
Tissue distribution, Lung [2]: 0.78 ± 0.19 % IA/g
Tissue distribution, Muscle [2]: 0.22 ± 0.14 % IA/g
Tissue distribution, Salivary glands [2]: 0.38 ± 0.08 % IA/g
Tissue distribution, Spleen [2]: 0.45 ± 0.08 % IA/g
Tissue distribution, Stomach [2]: 0.22 ± 0.06 % IA/g
Tumor-to-blood ratio [2]: 15 ± 5
Tumor-to-kidney ratio [2]: 0.71 ± 0.10
Tumor-to-liver ratio [2]: 14 ± 1
Tissue distribution, Blood [3]: 0.16 ± 0.03 % IA/g
Tissue distribution, Bone [3]: < 0.10 % IA/g
Tissue distribution, Heart [3]: 0.11 ± 0.02 % IA/g
Tissue distribution, Intestines [3]: 0.10 ± 0.01 % IA/g
Tissue distribution, Kidneys [3]: 5.9 ± 1.5 % IA/g
Tissue distribution, LNCaP tumor [3]: 18 ± 7 % IA/g
Tissue distribution, Liver [3]: 0.48 ± 0.08 % IA/g
Tissue distribution, Lung [3]: 0.24 ± 0.03 % IA/g
Tissue distribution, Muscle [3]: < 0.10 % IA/g
Tissue distribution, Salivary glands [3]: 0.18 ± 0.03 % IA/g
Tissue distribution, Spleen [3]: 0.35 ± 0.06 % IA/g
Tissue distribution, Stomach [3]: 0.13 ± 0.04 % IA/g
Tumor-to-blood ratio [3]: 116 ± 37
Tumor-to-kidney ratio [3]: 3.2 ± 1.1
Tumor-to-liver ratio [3]: 39 ± 13
Tissue distribution, Blood [4]: 0.19 ± 0.03 % IA/g
Tissue distribution, Bone [4]: 0.14 ± 0.03 % IA/g
Tissue distribution, Heart [4]: 0.12 ± 0.02 % IA/g
Tissue distribution, Intestines [4]: 0.12 ± 0.03 % IA/g
Tissue distribution, Kidneys [4]: 6.8 ± 1.1 % IA/g
Tissue distribution, LNCaP tumor [4]: 8.8 ± 2.2 % IA/g
Tissue distribution, Liver [4]: 0.45 ± 0.07 % IA/g
Tissue distribution, Lung [4]: 0.23 ± 0.03 % IA/g
Tissue distribution, Muscle [4]: < 0.10 % IA/g
Tissue distribution, Salivary glands [4]: 0.16 ± 0.02 % IA/g
Tissue distribution, Spleen [4]: 0.21 ± 0.06 % IA/g
Tissue distribution, Stomach [4]: 0.23 ± 0.10 % IA/g
Tumor-to-blood ratio [4]: 46 ± 12
Tumor-to-kidney ratio [4]: 1.3 ± 0.2
Tumor-to-liver ratio [4]: 20 ± 3
Tissue distribution, Blood [5]: 0.10 ± 0.02 % IA/g
Tissue distribution, Bone [5]: < 0.10 % IA/g
Tissue distribution, Heart [5]: < 0.10 % IA/g
Tissue distribution, Intestines [5]: < 0.10 % IA/g
Tissue distribution, Kidneys [5]: 2.0 ± 0.3 % IA/g
Tissue distribution, LNCaP tumor [5]: 16 ± 5 % IA/g
Tissue distribution, Liver [5]: 0.50 ± 0.10 % IA/g
Tissue distribution, Lung [5]: 0.16 ± 0.04 % IA/g
Tissue distribution, Muscle [5]: < 0.10 % IA/g
Tissue distribution, Salivary glands [5]: 0.11 ± 0.01 % IA/g
Tissue distribution, Spleen [5]: 0.31 ± 0.08 % IA/g
Tissue distribution, Stomach [5]: < 0.10 % IA/g
Tumor-to-blood ratio [5]: 155 ± 31
Tumor-to-kidney ratio [5]: 7.7 ± 1.7
Tumor-to-liver ratio [5]: 32 ± 7
Tissue distribution, Blood [6]: 0.09 ± 0.02 % IA/g
Tissue distribution, Bone [6]: < 0.10 % IA/g
Tissue distribution, Heart [6]: < 0.10 % IA/g
Tissue distribution, Intestines [6]: < 0.10 % IA/g
Tissue distribution, Kidneys [6]: 2.4 ± 0.5 % IA/g
Tissue distribution, LNCaP tumor [6]: 9.5 ± 1.1 % IA/g
Tissue distribution, Liver [6]: 0.57 ± 0.09 % IA/g
Tissue distribution, Lung [6]: 0.14 ± 0.03 % IA/g
Tissue distribution, Muscle [6]: < 0.10 % IA/g
Tissue distribution, Salivary glands [6]: < 0.10 % IA/g
Tissue distribution, Spleen [6]: 0.24 ± 0.04 % IA/g
Tissue distribution, Stomach [6]: < 0.10 % IA/g
Tumor-to-blood ratio [6]: 105 ± 14
Tumor-to-kidney ratio [6]: 4.2 ± 0.7
Tumor-to-liver ratio [6]: 17 ± 2
Tissue distribution, Blood (LNCaP model, 48 h p.i., 1.0 nmol, listed as [177Lu]Lu-Ibu-DAB-PSMA): < 0.10 % IA/g
